From patent US20080051381A1, “Suppression of estrus in mares by a single injection method” (priority 2006, published 2008)
Marks after values point to notes of the source that are not given here.

What was measured:
[1] = tested on: estrus and ovulation in light-horse mares; assay: Suppression of estrus and ovulation in mares after a single sustained release injection; type: in vivo, mares (equine)
Procedure: Thirty one randomly selected light-horse mares are maintained on native pasture and ad libitum hay. Verification of normal reproductive cyclicity is determined by follicular ultrasound, teasing with a vigorous stallion, and radioimmunoassay of plasma progesterone concentrations. Mares displaying estrus (i.e. the estrus mare group) with plasma progesterone levels below 1 ng/mL are followed by ultrasound until a follicle 30 mm or greater is determined. When a follicle reaches 30 mm, 2 mL of 2000 IU human chorionic gonadotropin is administered to induce ovulation. Mares in the estrus group are subsequently followed by ultrasound until ovulation and corpus luteal formation are verified. Six days after ovulation is determined, mares in this group are given a 2 mL injection of dinoprost tromethamine and randomly assigned to a treatment regime set forth in Table 1.
Mares not displaying estrus (i.e. the non-estrus mare group) with progesterone concentrations above 1 ng/mL and the presence of a corpus luteum verified by ultrasound are given 2 mL dinoprost tromethamine. Once estrus is detected by teasing with a stallion, these mares are treated as the mares assigned to the estrus mare group. […]
The mares of each of the groups in Table 1 are followed via ultrasound every other day after treatment until a follicle 25 mm or greater is detected. […]
Injection site assessments are made on days 0, 1, 3, 6, and 9 post-treatment. […] Plasma concentrations of progesterone are measured with commercially available reagents (Diagnostic Systems Laboratories, Webster, Tex.). […] Data are analyzed by the Proc Mixed procedure of SAS (SAS Institute Inc., Cary, N.C.). Single point variables are analyzed via a one way ANOVA. Data from injection site scores are analyzed for effects of treatment, time, and treatment by time interactions with repeated measures. When a significant F is detected (P<0.05), the least significant difference (LSD) test is used to determine differences between groups within times.

[2] = tested on: injection site swelling in mares; assay: Injection site assessment (swelling score 0-3) in mares; type: in vivo, mares (equine); details: compared to controls (FIG. 1)
Procedure: Injection site assessments are made on days 0, 1, 3, 6, and 9 post-treatment. Scores are based on a subjective scale of 0-3. Zero means no swelling; one means slight diameter swelling (i.e. about 12.5 mm); 2 means moderate diameter swelling (i.e. about 12.5 to 25 mm); and 3 means significant swelling (i.e. more than 25 mm). Plasma concentrations of progesterone are measured with commercially available reagents (Diagnostic Systems Laboratories, Webster, Tex.). Intra- and interassay CV and assay sensitivities are 5%, 8%, and 0.1 ng/mL. Data are analyzed by the Proc Mixed procedure of SAS (SAS Institute Inc., Cary, N.C.). Single point variables are analyzed via a one way ANOVA. Data from injection site scores are analyzed for effects of treatment, time, and treatment by time interactions with repeated measures. When a significant F is detected (P<0.05), the least significant difference (LSD) test is used to determine differences between groups within times.

[3] = tested on: estrus and ovulation in mares; details: prior knowledge; cited from earlier work

Structure (SMILES)	Effectiveness at delaying estrus and ovulation (in words) ([1]; compared to controls)	Days to ovulation ([1]; relative to administration of dinoprost tromethamine and treatment, mean ± SE)	Days to estrus ([1]; single injection on d0 together with 2 mL dinoprost tromethamine, mean ± SE)	Injection site swelling / biocompatibility (in words) [2]	Effect on estrus and ovulation (background, in words) [3]
CC(=O)O[C@]1(C(C)=O)CC[C@H]2[C@@H]3C[C@H](C)C4=CC(=O)CC[C@]4(C)[C@H]3CC[C@@]21C [Medroxyprogesterone, Medroxyprogesterone acetate]	not effective at delaying estrus or ovulation	11.3 ± 2.14^a days	6.2 ± 1.38^a days	most biocompatible formulation	not to effect estrus, ovulation or pregnancy maintenance
C=CC[C@]1(O)CC[C@H]2[C@@H]3CCC4=CC(=O)CCC4=C3C=C[C@@]21C [Altrenogest, 17-α-Allyl-17-β-hydroxyoestra-4,9,11-trien-3-one]	–	–	–	–	suppress estrus and ovulation
CC(=O)[C@H]1CC[C@H]2[C@@H]3CCC4=CC(=O)CC[C@]4(C)[C@H]3CC[C@]12C [progesterone]	–	–	–	–	suppress estrus and ovulation
